Assay results: US5773226A, “Recombinant calf intestinal alkaline phosphatase” (La Jolla Cancer Research Foundation, priority 1995, dated 1998)

Assays:
[1] = target: purified calf intestinal alkaline phosphatase (b.IAP) from natural sources (calf intestine); test: Kinetic parameters (Km, Ki for L-Phe) of purified natural calf IAP; format: biochemical, calf (bovine); settings: purified natural enzyme; read-out: K1 for L-Phe
Procedure: (§1) Values for Km and Kl for L-Phe were determined for the recombinant enzyme as well as for purified protein from calf intestine as described in Hummer and Millan, supra, and Wilkinson, Biochem. J. 8:324-332 (1961), incorporated herein by reference.

[2] = target: T1, recombinant calf intestinal alkaline phosphatase (b.IAP), expressed in CHO cells, SEQ ID NO: 10 (Bos taurus, UniProt P19111); test: Kinetic parameters (Km, Ki for L-Phe) of recombinant calf IAP; format: biochemical, calf (bovine); settings: recombinant enzyme; read-out: K1 for L-Phe
T1 construct: codes for a peptide of 533 amino acids in length; made in house; host or cells: Chinese hamster ovary (CHO) cells, ATCC No. CCL61
T1 sequence (P19111 20-506 limits assumed): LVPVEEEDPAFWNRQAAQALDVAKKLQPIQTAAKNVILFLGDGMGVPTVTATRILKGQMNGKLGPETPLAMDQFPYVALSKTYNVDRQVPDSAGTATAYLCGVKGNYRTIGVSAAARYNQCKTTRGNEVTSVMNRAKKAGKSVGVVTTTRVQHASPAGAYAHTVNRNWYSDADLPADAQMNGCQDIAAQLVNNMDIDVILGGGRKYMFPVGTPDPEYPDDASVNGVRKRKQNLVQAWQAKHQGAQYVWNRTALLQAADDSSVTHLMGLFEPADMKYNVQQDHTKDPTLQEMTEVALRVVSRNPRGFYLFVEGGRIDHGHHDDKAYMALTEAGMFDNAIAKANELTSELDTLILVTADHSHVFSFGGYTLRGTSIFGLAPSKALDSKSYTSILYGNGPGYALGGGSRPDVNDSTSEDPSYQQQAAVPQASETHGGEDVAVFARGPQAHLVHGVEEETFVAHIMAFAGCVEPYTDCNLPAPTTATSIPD
Procedure: as §1

`N[C@@H](Cc1ccccc1)C(=O)O` [L-Phe] was tested, and the Ki [1] was 11.2 ± 1 mM and the Ki [2] was 15.2 ± 1.8 mM.
